Source: article PMC10330721, “Chemo-enzymatic synthesis and biological activity evaluation of propenylbenzene derivatives” (Frontiers in Microbiology, 2023)
Values after ≈ are worked out from the molar mass of the structure shown. Read-outs that look alike come from different tables or passages of the source.

What was measured:
[1] = test system: C. albicans 595/20; test: Fungistatic activity assay, broth microdilution; format: cell-based; details: Candida albicans; C. albicans 595/20, 24 h, 35°C, tested 10–250 μg/mL; read-out: MIC50
Description: (§1) Fungistatic activity was determined using Candida albicans ATCC 90028 from the American Type Culture Collection (ATCC, Manassas, VA, United States), and clinical isolates, C. albicans 636/20, C. albicans 595/20, and C. albicans 38 obtained from Wrocław Medical University, Wrocław, Poland.
(§2) All compounds were tested for biological activity against C. albicans ATTC 90028, C. albicans 636/20, C. albicans 595/20, and C. albicans 38 using the broth microdilution method. YPD medium (20 g glucose, 20 g Bacto Peptone, 10 g yeast extract, and 1 L of distilled water, pH 6.5) was used for the tests. The compound solutions were prepared in DMSO and diluted in YPD to obtain final concentrations in the range of 10–250 μg/mL. One hundred microlitres of each solution was pipetted into the wells of a 96-well microtiter plate. The inoculum was standardized to 0.5 McFarland standard and then diluted to obtain a final suspension with a cell density of 0.5–2.5 × 10^3 CFU/mL. The inoculum size was 100 μL. The positive control comprised DMSO added in the same concentration as the tested compounds in the inoculum, whereas the negative control consisted of DMSO diluted in the broth without the addition of inoculum. The microtiter plates were incubated in a Biosan PST-60 HL Plate Shaker-Thermostat (Riga, Latvia) at 35°C under shaking at 1,000 rpm for 24 h.

[2] = test system: RBCs membrane; test: Fluorescence spectroscopy of the RBCs membrane (DPH probe anisotropy); format: cell-based, human; details: for Change in DPH anisotropy / RBCs membrane fluidity (in words): RBCs, 20, 60 and 100 μM; for Fluorescence anisotropy of the DPH probe: membranes of RBCs, 37 °C
Description: Using the DPH probe, the anisotropy values of cell membranes of RBCs modified with the test compounds were measured. RBCs for this analysis were prepared according to the method described in subsection 2.5.3. Then, the DPH probe was added to RBCs with a haematocrit of 0.2%. The final concentration of the probe in the sample was 1.3 μM. The mixture was incubated protected from light at 37°C for 30 min. Then, the compounds dissolved in ethanol were added. The compounds were tested at 20, 60, and 100 μM concentrations. Samples with compounds and control samples with alcohol of the appropriate concentration were incubated at 37°C for 1 h. Measurements in triplicate were made in quartz cuvettes using a CARY Eclipse fluorimeter (Varian, San Diego, CA, United States) at 37°C. The excitation wavelength for the DPH probe is λexc = 360 nm and the emission wavelength is λem = 426 nm.

[3] = test system: MG63 cells; test: Resazurin-based viability assay; format: cell-based, human; details: for Effect on MG63 proliferation / viability (in words): 24 h, 1, 50 and 200 μg/mL
Description: (§3) HepG2 cells were cultured in Dulbecco’s modified Eagle’s Medium - low glucose (Merck) supplemented with 10% foetal bovine serum (FBS) (Merck). Caco-2 cells were cultured in Dulbecco’s modified Eagle’s medium - high glucose (Merck) supplemented with 10% FBS, 2% HEPES buffer (Thermo Fisher Scientific, Warszawa, Poland), 1% Penicillin–Streptomycin-Amphotericin B Solution (100×, Merck), 1% MEM solution (100×, Thermo Fisher Scientific), and 1% Gentamycin Solution (10 mg/mL, Merck). MG-63 cells were cultured in Minimum Essential Medium (Merck) supplemented with 10% FBS. All cells were cultured in an atmosphere of 5% CO2 at 37°C.
The tested compounds were dissolved in ethanol at 10 mg/mL. The concentrations were then adjusted to 1, 50, and 200 μg/mL in culture medium. Four controls were prepared: no ethanol added, and 0.01, 0.5, and 2% EtOH. The cells were treated with the compounds for 24 h. […] The culture medium was replaced with medium containing 10% resazurin dye. The cells were incubated at 37°C in an atmosphere of 5% CO2 for 2 h. Absorbance levels were measured spectrophotometrically (Epoch) at a wavelengths of 600 nm for resazurin and 690 nm as a reference.

[4] = test system: C. albicans strains; test: Fungistatic activity assay, broth microdilution, values given over several strains; format: cell-based, Candida albicans; details: Candida albicans
Description: as §1, §2

[5] = test system: Caco-2 cells; test: Resazurin-based viability assay; format: cell-based, human; details: for Effect on Caco-2 proliferation / viability (in words): 24 h, 1, 50 and 200 μg/mL
Description: as §3, with “The human HepG2 and Caco-2 cell lines were obtained from the American Type Culture Collection (HB-8065™ and HTB-37™) and the MG-63 cell line was obtained from the European Collection of Authenticated Cell Cultures (Merck, Poznań, Poland). HepG2” for “HepG2”
(§4) HepG2, Caco-2, and […] were seeded in 96-well plates at 20,000 cells per well, and MG-63 cells at 10,000 cells per well, as described previously ([Marycz et al., 2012]; [Kornicka et al., 2017]). The tested compounds were dissolved in ethanol at 10 mg/mL. The concentrations were then adjusted to 1, 50, and 200 μg/mL in culture medium. Four controls were prepared: no ethanol added, and 0.01, 0.5, and 2% EtOH. The cells were treated with the compounds for 24 h. Then, cell viability was evaluated using the resazurin-based assay kit (TOX8), as described previously ([Grzesiak et al., 2011]; [Marycz et al., 2018]). The culture medium was replaced with medium containing 10% resazurin dye. The cells were incubated at 37°C in an atmosphere of 5% CO2 for 2 h. Absorbance levels were measured spectrophotometrically (Epoch) at a wavelengths of 600 nm for resazurin and 690 nm as a reference.

[6] = test system: HepG2 cells; test: Resazurin-based viability assay; format: cell-based, human
Description: as §3, with “The human HepG2 and Caco-2 cell lines were obtained from the American Type Culture Collection (HB-8065™ and HTB-37™) and the MG-63 cell line was obtained from the European Collection of Authenticated Cell Cultures (Merck, Poznań, Poland). HepG2” for “HepG2”
as §4

[7] = Haemolytic activity assay; format: cell-based; details: human red blood cells (RBCs) from healthy donors, 37°C, read-out: Percentage of haemolysis
Description: This test is based on comparison of the cytotoxicity of all tested compounds in human red blood cells (RBCs) with that in a control group. RBCs for this method were obtained from a blood center from examined and healthy donors. The compounds were tested at 10, 20, 40, 60, 80, and 100 μM concentrations. The control sample contained only ethanol in the same volume as the test samples. […] The samples were incubated at 37°C for 1 h. Then, the absorbance at 540 nm was measured using a UV–Vis spectrophotometer (Specord 40, Analytik Jena, Jena, Germany). The haemolytic activity of the compounds was determined as the ratio of the absorbance of haemoglobin in the test samples to that in completely haemolyzed cells multiplied by 100%.

[8] = test system: C. albicans ATTC18804; parameters: method as in Kubo et al., 1993; details: C. albicans ATTC18804 ref Kubo et al., 1993; cited from earlier work

SMILES | Change in DPH anisotropy / RBCs membrane fluidity (in words) [2] | Fluorescence anisotropy of the DPH probe ([2]; 20 µM) | Fluorescence anisotropy of the DPH probe ([2]; 60 µM) | Fluorescence anisotropy of the DPH probe ([2]; 100 µM) | Effect on MG63 proliferation / viability (in words) [3] | Effect on Caco-2 proliferation / viability (in words) [5] | hemolysis at 1 h, 10 µM [7] | hemolysis at 1 h, 20 µM [7] | hemolysis at 1 h, 40 µM [7] | hemolysis at 1 h, 60 µM [7] | hemolysis at 1 h, 80 µM [7] | hemolysis at 1 h, 100 µM [7] | also measured
COc1ccc(C(O)C(C)O)cc1 (stereo not shown) [3b, 1-(4-methoxyphenyl)propane-1,2-diol] | an increase in anisotropy at lower concentrations and a decrease at higher concentrations | 0.272 ± 0.019 | 0.249 ± 0.083 | 0.262 ± 0.056 | suppressed the proliferation | strongest inhibition | 2.45 ± 0.509% | 2.98 ± 0.153% | 1.9 ± 0.209% | 2.29 ± 0.635% | 2.4 ± 0.209% | 2.6 ± 0.265% | MIC50 [1]: 47 µg/mL (≈ 258 µM); MIC50 ([4]; C. albicans 595/20, 636/20 and 38, read-out: MIC50 (over three strains)): 47 to 76 µg/mL (≈ 258 to 417 µM); Effect on HepG2 proliferation / viability (in words) ([6]; 24 h, 1, 50 and 200 μg/mL): significantly increased the proliferative potential
CC=Cc1ccc(OC)c(OC)c1 [4a, 1,2-dimethoxy-4-prop-1-en-1-yl benzene] |  | 0.264 ± 0.004 | 0.261 ± 0.008 | 0.269 ± 0.007 | promoted MGC63 proliferation |  | 1.76 ± 0.152% | 1.48 ± 0.173% | 1.67 ± 0.195% | 1.58 ± 0.18% | 2.48 ± 0.152% | 1.79 ± 0.159% | MIC [8]: 400 µg/mL (≈ 2240 µM); MIC50 ([4]; read-out: MIC50 (over all tested strains)): 39 to 67 µg/mL (≈ 219 to 376 µM)
COc1ccc(C(O)C(C)O)cc1OC (stereo not shown) [4b, 1-(3,4-dimethoxyphenyl)propane-1,2-diol] | increase in anisotropy | 0.289 ± 0.004 | 0.228 ± 0.095 | 0.290 ± 0.003 |  | strongest inhibition | 1.64 ± 0.127% | 1.52 ± 0.375% | 1.42 ± 0.074% | 1.2 ± 0.395% | 1.19 ± 0.04% | 2.06 ± 0.536% | MIC50 ([4]; C. albicans 636/20, 595/20, 38 and ATTC90028, read-out: MIC50 (over all tested strains)): 37 to 63 µg/mL (≈ 174 to 297 µM)
COc1ccc(C(=O)C(C)O)cc1OC (stereo not shown) [4c, 1-(3,4-dimethoxyphenyl)-2-hydroxypropan-1-one] | a decrease in anisotropy | 0.257 ± 0.014 | 0.243 ± 0.019 | 0.263 ± 0.008 | promoted MGC63 proliferation |  | 1.483 ± 0.007% | 1.93 ± 0.228% | 2.1 ± 0.395% | 1.77 ± 0.342% | 2.02 ± 0.047% | 2.445 ± 0.013% | 
COc1cc(C(O)C(C)O)ccc1O (stereo not shown) [5b, 1-(4-hydroxy-3-methoxyphenyl)propane-1,2-diol] |  | 0.268 ± 0.025 | 0.277 ± 0.003 | 0.272 ± 0.058 | suppressed the proliferation |  | 1.27 ± 0.094% | 1.55 ± 0.101% | 1.52 ± 0.181% | 1.62 ± 0.174% | 2.58 ± 0.288% | 1.98 ± 0.308% | Effect on MG63 proliferative activity (in words) ([3]; 24 h, 1 μg/mL): induced the proliferative activity; Effect on MG63 proliferative activity / viability (in words) ([3]; 24 h, 50 μg/mL): significantly increased cell viability; Effect on Caco-2 proliferative activity (in words) ([5]; 24 h, 1 μg/mL): induced the proliferative activity; Effect on HepG2 proliferative activity (in words) ([6]; 24 h, 1 μg/mL): induced the proliferative activity
